The text below walks through data of patent US9682995B2, “Amino-substituted isothiazoles” (BAYER PHARMA AKTIENGESELLSCHAFT, priority 2013, dated 2017).

A value given as a limit tells only on which side of the number the result lay.

The test system of experiment [1] is spindle assembly checkpoint. The experiment is described as follows: SAC-Formation - Nocodazole-Induced Assay. Type of experiment: cell-based. Particulars: Homo sapiens; HeLa cells, nocodazole 0.1 μg/ml, 24 h, phosphorylated histone H3 on serine 10. An excerpt:
The spindle assembly checkpoint assures the proper segregation of chromosomes during mitosis. Upon entry into mitosis, chromosomes begin to condensate which is accompanied by the phosphorylation of histone H3 on serine 10. Dephosphorylation of histone H3 on serine 10 begins in anaphase and ends at early telophase. Accordingly, phosphorylation of histone H3 on serine 10 can be utilized as a marker of cells in mitosis. Nocodazole is a microtubule destabilizing substance. Paclitaxel is a microtubule stabilizing compound. Thus, nocodazole as well as paclitaxel interfere with microtubule dynamics and mobilize the spindle assembly checkpoint. […] The mitotic breakthrough can be detected by the decrease of cells with phosphorylation of histone H3 on serine 10. This decline is used as a marker to determine the capability of compounds of the present invention to induce a mitotic breakthrough. The typical morphological alteration of nuclei with a prematurely completed mitosis after SAC-inhibition can be monitored via image analysis routines supporting those findings.
The nocodazole and paclitaxel variations were used to focus on compounds that are capable of inhibiting a SAC induced by both microtubule destabilization as well as microtubule stabilization. When SAC inducing agents and compounds are given simultaneously, inhibitors that effectively block the SAC during formation or abrogation are identified. When cells are incubated with a SAC inducing agent and the SAC interfering compound is given after a defined time, inhibitors are identified that effectively block SAC abrogation.
Cultivated cells of the human cervical tumor cell line HeLa (ATCC CCL-2) were plated at a density of 1000 cells/well in a 1536-well microtiter plate in 2 μl PAA Ham's F12 Medium supplemented with 1% (v/v) glutamine, 1% (v/v) penicillin, 1% (v/v) streptomycin and 10% (v/v) fetal calf serum. After incubation overnight at 37° C., 10 μl/well nocodazole at a final concentration of 0.1 μg/ml were added to cells. Test compounds solubilized in dimethyl sulfoxide (DMSO) were added at various concentrations (0 μM, as well as in the range of 0.005 μM-20 μM; the final concentration of the solvent DMSO was 0.5% (v/v)). Cells were incubated for 24 h at 37° C. in the presence of test compounds in combination with nocodazole. Thereafter, cells were fixed in 4% (v/v) paraformaldehyde in phosphate buffered saline (PBS) at 4° C. overnight then permeabilized in 0.1% (v/v) Triton X™ 100 in PBS at room temperature for 20 min and blocked in 0.5% (v/v) bovine serum albumin (BSA) in PBS at room temperature for 15 min. After washing with PBS, 5 μl/well antibody solution (anti-phospho-histone H3 clone 3H10, FITC; Millipore, Cat #16-222; 1:1000 dilution) was added to cells, which were incubated for 2 h at room temperature. Afterwards, cells were washed with PBS and 5 μl/well solution of HOECHST 33342 dye (5 μg/ml) was added to cells and cells were incubated 15 min at room temperature in the dark. Cells were washed twice with PBS then covered with PBS and stored at 4° C. until analysis. Images were acquired with a PERKIN ELMER OPERA™ High-Content Analysis reader. Images were analyzed with image analysis software MetaXpress™ from Molecular devices utilizing the Mitotic Index application module. In this assay both labels HOECHST 33342 and phosphorylated Histone H3 on serine 10 were measured. HOECHST 33342 labels the DNA and is used to count the cell number. The staining of phosphorylated Histone H3 on serine 10 determines the number of mitotic cells. […] Otherwise cells were arrested at G2/M phase of the cell cycle progression. The raw assay data were further analyzed by four-parametric hill equation using Genedata's Assay Analyzer and Condoseo software.

Experiment [2] deals with human Bub1 (Homo sapiens (Human), UniProt O43683). The experiment is described as follows: Bub1 kinase assay (TR-FRET). Conditions: 10 μM ATP; read-out: Bub1 avg (IC50 [mol/l]). Type of experiment: biochemical. The text has this:
Bub1-inhibitory activity of compounds of the present invention was quantified employing the Bub1 TR-FRET assay as described in the following paragraphs.
N-terminally His6-tagged recombinant catalytic domain of human Bub1 (amino acids 704-1085), expressed in insect cells (Hi5) and purified by Ni-NTA affinity chromatography and subsequent size exclusion chromatography, was used as enzyme. As substrate for the kinase reaction the biotinylated peptide biotin-Ahx-VLLPKKSFAEPG (C-terminus in amid form) was used which can be purchased e.g. form the company Biosyntan (Berlin, Germany).
For the assay 50 nl of a 100 fold concentrated solution of the test compound in DMSO was pipetted into a black low volume 384 well microtiter plate (Greiner Bio-One, Frickenhausen, Germany), 2 μl of a solution of Bub1 in aqueous assay buffer [50 mM Tris/HCl pH 7.5, 10 mM magnesium chloride (MgCl2), 200 mM potassium chloride (KCl), 1.0 mM dithiothreitol (DTT), 0.1 mM sodium ortho-vanadate, 1% (v/v) glycerol, 0.01% (w/v) bovine serum albumine (BSA), 0.005% (v/v) Trition X-100 (Sigma), 1× Complete EDTA-free protease inhibitor mixture (Roche)] were added and the mixture was incubated for 15 min at 22° C. to allow pre-binding of the test compounds to the enzyme before the start of the kinase reaction. Then the kinase reaction was started by the addition of 3 μl of a solution of adenosine-tri-phosphate (ATP, 16.7 μM=>final conc. in the 5 μl assay volume is 10 μM) and substrate (1.67 μM=>final conc. in the 5 μl assay volume is 1 μM) in assay buffer and the resulting mixture was incubated for a reaction time of 60 min at 22° C. The concentration of Bub1 was adjusted depending of the activity of the enzyme lot and was chosen appropriate to have the assay in the linear range, typical concentrations were in the range of 200 ng/ml. The reaction was stopped by the addition of 5 μl of a solution of TR-FRET detection reagents (0.2 μM streptavidine-XL665 [Cisbio Bioassays, Codolet, France] and 1 nM anti-phosho-Serine antibody [Merck Millipore, cat. #35-001] and 0.4 nM LANCE EU-W1024 labeled anti-mouse IgG antibody [Perkin-Elmer, product no. AD0077, as an alternative a Terbium-cryptate-labeled anti-mouse IgG antibody from Cisbio Bioassays can be used]) in an aqueous EDTA-solution (50 mM EDTA, 0.2% (w/v) bovine serum albumin in 100 mM HEPES pH 7.5).
The resulting mixture was incubated 1 h at 22° C. to allow the formation of complex between the phosphorylated biotinylated peptide and the detection reagents. Subsequently the amount of phosphorylated substrate was evaluated by measurement of the resonance energy transfer from the Eu-chelate to the streptavidine-XL. Therefore, the fluorescence emissions at 620 nm and 665 nm after excitation at 350 nm was measured in a TR-FRET reader, e.g. a Rubystar or Pherastar (both from BMG Labtechnologies, Offenburg, Germany) or a Viewlux (Perkin-Elmer). The ratio of the emissions at 665 nm and at […] was taken as the measure for the amount of phosphorylated substrate. The data were normalised (enzyme reaction without inhibitor=0% inhibition, all other assay components but no enzyme=100% inhibition).

Sequence of human Bub1 (O43683 704-1085): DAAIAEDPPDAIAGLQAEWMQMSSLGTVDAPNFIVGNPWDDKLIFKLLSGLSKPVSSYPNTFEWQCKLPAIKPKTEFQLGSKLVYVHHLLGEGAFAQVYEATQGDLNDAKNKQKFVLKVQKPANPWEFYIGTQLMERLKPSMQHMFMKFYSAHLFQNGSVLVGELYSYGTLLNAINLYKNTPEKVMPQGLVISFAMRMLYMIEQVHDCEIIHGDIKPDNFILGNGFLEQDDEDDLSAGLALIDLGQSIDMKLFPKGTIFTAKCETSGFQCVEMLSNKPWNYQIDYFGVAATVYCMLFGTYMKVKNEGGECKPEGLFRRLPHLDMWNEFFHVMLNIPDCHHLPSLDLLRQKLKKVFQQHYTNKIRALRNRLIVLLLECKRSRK

On to `COc1ccc(NC(=O)c2c(C)nsc2Nc2cnc3cccc(C)c3n2)cn1` [Example 22, N-(6-methoxypyridin-3-yl)-3-methyl-5-[(8-methylquinoxalin-2-yl)amino]-1,2-thiazole-4-carboxamide], for which the IC50 is 210 nM in experiment [1] and above 20000 nM in experiment [2].
On the same counts, the results for `COc1ccc(NC(=O)c2c(C)nsc2Nc2cnc3cc(Cl)ccc3n2)cn1` [Example 23, 5-[(6-Chloroquinoxalin-2-yl)amino]-N-(6-methoxypyridin-3-yl)-3-methyl-1,2-thiazole-4-carboxamide] are 280 nM and above 20000 nM.
The matching figures for `COc1ccc(NC(=O)c2c(C)nsc2Nc2nccnc2C#N)cn1` [Example 24, 5-[(3-Cyanopyrazin-2-yl)amino]-N-(6-methoxypyridin-3-yl)-3-methyl-1,2-thiazole-4-carboxamide]: 3800 nM and 3100 nM.
The matching figures for `COc1ccc(NC(=O)c2c(C)nsc2Nc2cc(C#N)ccn2)cn1` [Example 25, 5-[(4-Cyanopyridin-2-yl)amino]-N-(6-methoxypyridin-3-yl)-3-methyl-1,2-thiazole-4-carboxamide]: 2200 nM and above 20000 nM.
On to `CCOC(=O)c1sc(Nc2snc(C)c2C(=O)Nc2ccccc2CC)nc1C` [Example 26, Ethyl 2-({4-[(2-ethylphenyl)carbamoyl]-3-methyl-1,2-thiazol-5-yl}amino)-4-methyl-1,3-thiazole-5-carboxylate], for which the IC50 in experiment [1] is 140 nM; in experiment [2], above 20000 nM.
On the same counts, the results for `Cc1nsc(Nc2cc(C#N)ccn2)c1C(=O)Nc1ccc(F)c(F)c1` [Example 27, 5-[(4-Cyanopyridin-2-yl)amino]-N-(3,4-difluorophenyl)-3-methyl-1,2-thiazole-4-carboxamide] are 110 nM and above 20000 nM.
On the same counts, the results for `Cc1nsc(Nc2ccc(C#N)cn2)c1C(=O)Nc1ccc(F)c(F)c1` [Example 28, 5-[(5-Cyanopyridin-2-yl)amino]-N-(3,4-difluorophenyl)-3-methyl-1,2-thiazole-4-carboxamide] are 41 nM and above 20000 nM.
On the same counts, the results for `CCOC(=O)c1cnc(Nc2snc(C)c2C(=O)Nc2ccc(OC)nc2)s1` [Example 29, Ethyl 2-({4-[(6-methoxypyridin-3-yl)carbamoyl]-3-methyl-1,2-thiazol-5-yl}amino)-1,3-thiazole-5-carboxylate] are 310 nM and above 20000 nM.
Consider `CCOC(=O)c1sc(Nc2snc(C)c2C(=O)Nc2ccc(OC)nc2)nc1C` [Example 30, Ethyl 2-({4-[(6-methoxypyridin-3-yl)carbamoyl]-3-methyl-1,2-thiazol-5-yl}amino)-4-methyl-1,3-thiazole-5-carboxylate], for which the results for the IC50 in experiment [1] and in experiment [2] were 92 nM and above 20000 nM, respectively.
The matching figures for `COC(=O)c1ccc(Nc2snc(C)c2C(=O)Nc2ccc(OC)nc2)nc1` [Example 31, Methyl 6-({4-[(6-methoxypyridin-3-yl)carbamoyl]-3-methyl-1,2-thiazol-5-yl}amino)-nicotinate]: 5500 nM and above 20000 nM.
The matching figures for `COC(=O)c1cnc(Nc2snc(C)c2C(=O)Nc2ccc(OC)nc2)cn1` [Example 32, Methyl 5-({4-[(6-methoxypyridin-3-yl)carbamoyl]-3-methyl-1,2-thiazol-5-yl}amino)-pyrazine-2-carboxylate]: 510 nM and above 20000 nM.
On the same counts, the results for `CCc1ccccc1NC(=O)c1c(C)nsc1Nc1cnc2cccc(C)c2n1` [Example 33, N-(2-Ethylphenyl)-3-methyl-5-[(8-methylquinoxalin-2-yl)amino]-1,2-thiazole-4-carboxamide] are 200 nM and above 20000 nM.
In the case of `CCc1ccccc1NC(=O)c1c(C)nsc1Nc1nccnc1C#N` [Example 34, 5-[(3-Cyanopyrazin-2-yl)amino]-N-(2-ethylphenyl)-3-methyl-1,2-thiazole-4-carboxamide], the IC50 is 950 nM in experiment [1] and above 20000 nM in experiment [2].
The matching figures for `CCc1ccccc1NC(=O)c1c(C)nsc1Nc1nc(C)nc2ccccc12` [Example 35, N-(2-Ethylphenyl)-3-methyl-5-[(2-methylquinazolin-4-yl)amino]-1,2-thiazole-4-carboxamide]: 260 nM and above 20000 nM.
On the same counts, the results for `COc1ccc(NC(=O)c2c(C)nsc2Nc2cccc(C#N)n2)cn1` [Example 37, 5-[(6-Cyanopyridin-2-yl)amino]-N-(6-methoxypyridin-3-yl)-3-methyl-1,2-thiazole-4-carboxamide] are 2400 nM and above 20000 nM.
In the case of `CCc1ccccc1NC(=O)c1c(C)nsc1Nc1nc(C)nc2sccc12` [Example 38, N-(2-Ethylphenyl)-3-methyl-5-[(2-methylthieno[2,3-d]pyrimidin-4-yl)amino]-1,2-thiazole-4-carboxamide], the IC50 was 690 nM in experiment [1] and above 20000 nM in experiment [2].
On the same counts, the results for `COc1ccc(NC(=O)c2c(C)nsc2Nc2ccc(C#N)cn2)cn1` [Example 39, 5-[(5-Cyanopyridin-2-yl)amino]-N-(6-methoxypyridin-3-yl)-3-methyl-1,2-thiazole-4-carboxamide] are 1300 nM and above 20000 nM.
On the same counts, the results for `Cc1nsc(Nc2cnc3ccccc3n2)c1C(=O)Nc1ccc(Cl)c(F)c1` [Example 40, N-(4-Chloro-3-fluorophenyl)-3-methyl-5-(quinoxalin-2-ylamino)-1,2-thiazole-4-carboxamide] are 45 nM and above 20000 nM.
